Measured values published in patent US20250221979A1, “NOVEL HETEROCYCLIC COMPOUND” (SHOUYAO HOLDINGS (BEIJING) CO., LTD., priority 2022, published 2025).

Key:
human MAT2A enzyme = human MAT2A enzyme (Homo sapiens (Human), UniProt P31153); assay: In vitro enzymatic inhibition activity assay on MAT2A (PiColorLock phosphate detection); type: biochemical; conditions: purified human MAT2A 10 nM, ATP 50 μM, L-methionine 100 μM, 6 h at 23° C.; read-out: MAT2A inhibitory activity IC50
Summary of the method: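 IC50 came from an 8-point, 10-fold compound series that reduced phosphate release, measured by absorbance at 630 nm. Reactions ran 6 h at 23 °C with 10 nM human MAT2A, 50 μM ATP and 100 μM L-methionine in pH 7.5 Tris buffer containing Mg2+.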

HCT116 MTAP−/− cells = assay: Inhibition of proliferation of HCT116 MTAP-/- cells (Cell-Titer Glo, 7 days); type: cell-based; conditions: Homo sapiens, HCT-116, 168 h (7 days) incubation, read-out: HCT116 MTAP−/− antiproliferative activity IC50
Method: The MTAP deficient human colorectal cancer cell line HCT116 MTAP−/− was constructed using CRJSPR Cas9 technology and cultured in DMEM medium supplemented with 10% fetal bovine serum (FBS, purchased from Gibco) and 1% penicillin/streptomycin (P/S, purchased from Thermo Fisher Scientific) at 37° C. with 5% CO2. HCT116 MTAP−/− cells were plated in 96 well plates (#3917, purchased from CORNING) at a concentration of 200 cells/195 μL/well. After 24 h, the compounds were diluted in a 3-fold gradient starting at 10 mM with 100% DMSO (for a total of 10 concentrations), then 4 μL of each concentration was added to 96 μL of serum-free DMEM medium for dilution. 5 μL of diluted compound at each concentration was added to the plated cell suspension and the compound was incubated with the cells for 168 h (7 days) in a cell culture incubator. The medium was then removed and 25 μL of Cell-Titer Glo® (G7570, purchased from Promega) reagent was added. Chemiluminescence values were read on a BMG and data were processed using GraphPad Prism software to calculate IC50 values for inhibition of cell proliferation by the compounds.

[1] = In vivo pharmacokinetic study in CD-1 mice; conditions: male, mouse, single oral gavage dose of 10 mg/kg, plasma
Method: In vivo pharmacokinetic study in CD-1 mice
Twenty-four healthy adult male mice from Beijing Vital River Laboratory Animal Technology Co., Ltd. were used in the study.
CD-1 mice were administered with a single oral gavage dose of 10 mg/kg in a volume of 10 mL/kg at a concentration of 1 mg/mL.
The test article in this project is generally suspended in 0.5% hydroxypropylmethyl cellulose, 0.1% Tween 80 (W/V/V) aqueous solution at the concentration of 1 mg/mL.
Animals dosed by gavage were fasted overnight before the experiment from 16 h before dosing to 4 h after dosing. Blood was collected at 0.25, 0.5, 1, 2, 4, 6, 8, and 24 h after administration successively. The animals were lightly anesthetized with isoflurane. About 0.2 mL of whole blood was collected from the orbital venous plexus using a glass blood collection tube and placed in a sodium heparin anticoagulant tube. The sample was centrifuged at 5200 rpm for 5 min at 4° C. The plasma was transferred to a centrifuge tube and stored at −80° C. until analysis.
Analysis of plasma samples Test compounds and internal standards (warfarin or propranolol) were extracted from mouse plasma using an acetonitrile protein precipitation method and the extracts were analyzed by LC/MS/MS. The measured plasma concentration-time data of individual animals were analyzed using the non-compartmental model of WinNonlin (version 5.2.1, Pharsight) software to obtain the corresponding pharmacokinetic parameters: maximum (peak) plasma drug concentration Cmax; Time to peak Tmax; Half-life T1/2 and area under the plasma concentration-time curve extrapolated to infinite time AUC0-inf.

Chain of human MAT2A enzyme (P31153 whole entry): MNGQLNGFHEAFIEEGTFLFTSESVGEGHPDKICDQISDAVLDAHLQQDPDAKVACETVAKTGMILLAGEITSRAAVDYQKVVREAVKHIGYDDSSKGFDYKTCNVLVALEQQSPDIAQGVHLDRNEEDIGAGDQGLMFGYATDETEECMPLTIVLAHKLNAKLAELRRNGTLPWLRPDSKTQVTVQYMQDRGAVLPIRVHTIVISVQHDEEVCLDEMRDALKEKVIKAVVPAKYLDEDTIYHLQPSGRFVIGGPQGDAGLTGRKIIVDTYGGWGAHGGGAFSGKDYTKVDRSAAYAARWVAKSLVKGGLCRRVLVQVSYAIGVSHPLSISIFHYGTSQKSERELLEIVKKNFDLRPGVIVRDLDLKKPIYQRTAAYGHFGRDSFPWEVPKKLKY

`COC(=O)c1c(N)c2ccc(C(F)(F)F)cc2n(-c2ccc(CO)cc2)c1=O` [Example 86, methyl 4-amino-2-oxo-1-(4-(hydroxymethyl)phenyl)-7-(trifluoromethyl)-1,2-dihydroquinoline-3-carboxylate] gave an IC50 (human MAT2A enzyme) of 2.37 nM and an IC50 (HCT116 MTAP−/− cells) of 85.2 nM.
Work on `COC(=O)c1c(N)c2ccc(Br)cc2n(-c2ccc3c(c2)OCO3)c1=O` [Example 92, methyl 4-amino-1-(benzo[d](1,3)dioxol-5-yl)-7-bromo-2-oxo-1,2-dihydroquinoline-3-carboxylate] yielded an IC50 (human MAT2A enzyme) of 0.83 nM and an IC50 (HCT116 MTAP−/− cells) of 87.2 nM.
Compound `COC(=O)c1c(N)c2ccc(C(F)(F)F)cc2n(-c2ccc(C(C)O)cc2)c1=O` (stereo not shown) [Example 122, methyl 4-amino-1-(4-(1-hydroxyethyl)phenyl)-2-oxo-7-(trifluoromethyl)-1,2-dihydroquinoline-3-carboxylate] has an IC50 (human MAT2A enzyme) of 2.17 nM and an IC50 (HCT116 MTAP−/− cells) of 50 nM.
Compound `COC(=O)c1c(N)c2ccc(Br)cc2n(-c2ccc(N)cc2)c1=O` [Example 147, methyl 4-amino-1-(4-aminophenyl)-7-bromo-2-oxo-1,2-dihydroquinoline-3-carboxylate] has an IC50 (human MAT2A enzyme) of 0.78 nM, an IC50 (HCT116 MTAP−/− cells) of 81.5 nM and an AUC [1] of 24100 ng·h/mL. The Cmax [1] was 2320 ng/mL, the Tmax [1] was 1.67 h and the half-life [1] was 8.44 h.
In the case of `COC(=O)c1c(N)c2ccc(Br)cc2n(-c2cccc3cnccc23)c1=O` [Example 154, methyl 4-amino-7-bromo-1-(isoquinolin-5-yl)-2-oxo-1,2-dihydroquinoline-3-carboxylate], the IC50 (human MAT2A enzyme) is reported as 3 nM and the IC50 (HCT116 MTAP−/− cells) is reported as 35.1 nM.
`COC(=O)c1c(N)c2ccc(C(F)(F)F)nc2n(-c2ccc(Cl)cc2)c1=O` [Example 173, methyl 4-amino-1-(4-chlorophenyl)-2-oxo-7-(trifluoromethyl)-1,2-dihydro-1,8-naphthyridine-3-carboxylate] gave an IC50 (human MAT2A enzyme) of 1.18 nM and an IC50 (HCT116 MTAP−/− cells) of 30.9 nM.
For `COC(=O)c1c(N)c2ccc(C(F)(F)F)nc2n(-c2cccc3cnccc23)c1=O` [Example 174, methyl 4-amino-1-(isoquinolin-5-yl)-2-oxo-7-(trifluoromethyl)-1,2-dihydro-1,8-naphthyridine-3-carboxylate], the IC50 (human MAT2A enzyme) was 5.12 nM, the IC50 (HCT116 MTAP−/− cells) was 79 nM and the AUC [1] was 24500 ng·h/mL. It also gave a Cmax [1] of 9540 ng/mL, a Tmax [1] of 0.5 h and a half-life [1] of 3.08 h.
`COC(=O)c1c(N)c2ccc(C(F)(F)F)cc2n(-c2ccc(C(C)O)nc2)c1=O` (stereo not shown) [Example 175, methyl 4-amino-1-(6-(1-hydroxyethyl)pyridin-3-yl)-2-oxo-7-(trifluoromethyl)-1,2-dihydroquinoline-3-carboxylate] gave an IC50 (human MAT2A enzyme) of 6.25 nM and an IC50 (HCT116 MTAP−/− cells) of 53.5 nM.
In the case of `COC(=O)c1c(N)c2ccc(Br)cc2n(-c2ccc(Cl)c3cnccc23)c1=O` [Example 176, methyl amino-1-(8-chloroisoquinolin-5-yl)-7-bromo-2-oxo-1,2-dihydroquinoline-3-carboxylate], the IC50 (human MAT2A enzyme) is reported as 2.74 nM and the IC50 (HCT116 MTAP−/− cells) is reported as 39.2 nM.
With `COC(=O)c1c(N)c2ccc(I)cc2n(-c2cccc3cnccc23)c1=O` [Example 199, methyl 4-amino-7-iodo-1-(isoquinolin-5-yl)-2-oxo-1,2-dihydroquinoline-3-carboxylate] the IC50 (human MAT2A enzyme) was 3.57 nM, the IC50 (HCT116 MTAP−/− cells) was 48.5 nM and the AUC [1] was 24600 ng·h/mL. It also gave a Cmax [1] of 4270 ng/mL, a Tmax [1] of 2.5 h and a half-life [1] of 2.98 h.
Compound `COC(=O)c1c(N)c2ccc(Br)cc2n(-c2ccc(C(C)O)cc2)c1=O` (stereo not shown) [Example 200, methyl 4-amino-7-bromo-1-(4-(1-hydroxyethyl)phenyl)-2-oxo-1,2-dihydro quinoline-3-carboxylate] has an IC50 (human MAT2A enzyme) of 1.63 nM and an IC50 (HCT116 MTAP−/− cells) of 23.4 nM.
For `COC(=O)c1c(N)c2ccc(C(F)(F)F)nc2n(-c2ccc(Cl)nc2)c1=O` [Example 203, methyl 4-amino-1-(6-chloropyridin-3-yl)-2-oxo-7-(trifluoromethyl)-1,2-dihydro-1,8-naphthyridine-3-carboxylate], the IC50 (human MAT2A enzyme) was 1.26 nM and the IC50 (HCT116 MTAP−/− cells) was 25 nM.
Work on `COC(=O)c1c(N)c2ccc(C(F)(F)F)nc2n(-c2ccc(C)nc2)c1=O` [Example 207, methyl 4-amino-1-(6-methylpyridin-3-yl)-2-oxo-7-(trifluoromethyl)-1,2-dihydro-1,8-naphthyridine-3-carboxylate] yielded an IC50 (human MAT2A enzyme) of 2.17 nM and an IC50 (HCT116 MTAP−/− cells) of 53.2 nM.
With `COC(=O)c1c(N)c2ccc(C(F)(F)F)nc2n(-c2ccc(OC)nc2)c1=O` [Example 208, methyl 4-amino-1-(6-methoxypyridin-3-yl)-2-oxo-7-(trifluoromethyl)-1,2-dihydro-1,8-naphthyridine-3-carboxylate] the IC50 (human MAT2A enzyme) was 4.09 nM and the IC50 (HCT116 MTAP−/− cells) was 70.9 nM.
`COC(=O)c1c(N)c2ccc(Br)nc2n(-c2cccc3cnccc23)c1=O` [Example 221, methyl 4-amino-7-bromo-1-(isoquinolin-5-yl)-2-oxo-1,2-dihydro-1,8-naphthyridine-3-carboxylate] gave an IC50 (human MAT2A enzyme) of 2.71 nM and an IC50 (HCT116 MTAP−/− cells) of 41.4 nM.
Work on `COC(=O)c1c(N)c2ccc(Br)nc2n(-c2cccc3c(Cl)nccc23)c1=O` [Example 240, methyl 4-amino-1-(1-chloroisoquinolin-5-yl)-7-bromo-2-oxo-1,2-dihydro-1,8-naphthyridine-3-carboxylate] yielded an IC50 (human MAT2A enzyme) of 1.72 nM and an IC50 (HCT116 MTAP−/− cells) of 61.2 nM.
Compound `COC(=O)c1c(N)c2ccc(Br)nc2n(-c2ccc3ccncc3c2)c1=O` [Example 244, methyl 4-amino-7-bromo-1-(isoquinolin-7-yl)-2-oxo-1,2-dihydro-1,8-naphthyridine-3-carboxylate] has an IC50 (human MAT2A enzyme) of 0.86 nM and an IC50 (HCT116 MTAP−/− cells) of 46.4 nM.
For `COC(=O)c1c(N)c2ccc(I)cc2n(-c2ccc(N)cc2)c1=O` [Example 252, methyl 4-amino-1-(4-aminophenyl)-7-iodo-2-oxo-1,2-dihydro quinoline-3-carboxylate], the IC50 (human MAT2A enzyme) was 0.14 nM and the IC50 (HCT116 MTAP−/− cells) was 14.2 nM.
`COC(=O)c1c(N)c2ccc(Br)nc2n(-c2ccc(Cl)cc2)c1=O` [Example 265, methyl 4-amino-7-bromo-1-(4-chlorophenyl)-2-oxo-1,2-dihydro-1,8-naphthyridine-3-carboxylate] gave an IC50 (human MAT2A enzyme) of 0.94 nM and an IC50 (HCT116 MTAP−/− cells) of 47.3 nM.
With `COC(=O)c1c(N)c2ccc(Br)nc2n(-c2ccc(C(C)O)cc2)c1=O` (stereo not shown) [Example 266, methyl 4-amino-1-(4-(1-hydroxyethyl)phenyl)-7-bromo-2-oxo-1,2-dihydro-1,8-naphthyridine-3-carboxylate] the IC50 (human MAT2A enzyme) was 2.37 nM and the IC50 (HCT116 MTAP−/− cells) was 32.7 nM.
`COC(=O)c1c(N)c2ccc(C(F)(F)F)cc2n(-c2ccc([C@@H](C)O)cc2)c1=O` [Example 272, methyl 4-amino-1-(4-(1-(R)-hydroxyethyl)phenyl)-2-oxo-7-(trifluoromethyl)-1,2-dihydroquinoline-3-carboxylate] showed an IC50 (human MAT2A enzyme) of 0.78 nM and an IC50 (HCT116 MTAP−/− cells) of 16.6 nM.
`COC(=O)c1c(N)c2ccc(Br)cc2n(-c2ccc([C@@H](C)O)cc2)c1=O` [Example 340, methyl 4-amino-7-bromo-1-(4-(1-(R)-hydroxyethyl)phenyl)-2-oxo-1,2-dihydroquinoline-3-carboxylate] showed an IC50 (human MAT2A enzyme) of 1.44 nM and an IC50 (HCT116 MTAP−/− cells) of 2.1 nM.
For `COC(=O)c1c(N)c2ccc(OC(F)(F)F)cc2n(-c2ccc([C@@H](C)O)cc2)c1=O` [Example 378, methyl 4-amino-1-(4-((1R)-1-hydroxyethyl)phenyl)-2-oxo-7-(trifluoromethoxy)-1,2-dihydroquinoline-3-carboxylate], the IC50 (human MAT2A enzyme) was 1.2 nM and the IC50 (HCT116 MTAP−/− cells) was 1.5 nM.
